T/C data for 14 molecules are collected here from PubChem BioAssay AID292 (DTP/NCI, 2004).

This experiment deals with B6C3F1 mice, ip Sarcoma M5076, median survival T/C. The experiment is described as follows: NCI In Vivo Anticancer Drug Screen. Data for tumor model Sarcoma M5076 (intraperitoneal) in B6C3F1 mice. The settings on record: endpoint: median survival time, higher = longer survival. In short, it runs like this: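 The readout is a ratio of survival in drug-treated animals to survival in animals given vehicle alone, taken in mice bearing a transplanted tumour line.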

[1] abbreviates: dose: 50.0 mg/kg/injection, schedule: Q04DX004 (ip), vehicle: suspension in saline.
Setting [2] is: dose: 200.0 mg/kg/injection, schedule: Q04DX004 (ip), vehicle: suspension in saline.
The mark [3] stands for this setting: dose: 400.0 mg/kg/injection, schedule: Q04DX004 (ip), vehicle: suspension in saline.
Setting [4] is: dose: 75.0 mg/kg/injection, schedule: Q04DX004 (ip), vehicle: saline with Tween-80.
Setting [5] is: dose: 150.0 mg/kg/injection, schedule: Q04DX004 (ip), vehicle: saline with Tween-80.
Setting [6] is: dose: 50.0 mg/kg/injection, schedule: Q04DX004 (ip), vehicle: saline with Tween-80.
[7] abbreviates: dose: 100.0 mg/kg/injection, schedule: Q04DX004 (ip), vehicle: saline with Tween-80.
The mark [8] stands for this setting: dose: 200.0 mg/kg/injection, schedule: Q04DX004 (ip), vehicle: saline with Tween-80.
Where [9] appears, read: dose: 400.0 mg/kg/injection, schedule: Q04DX004 (ip), vehicle: saline with Tween-80.
Setting [10] is: dose: 25.0 mg/kg/injection, schedule: Q04DX004 (ip), vehicle: saline with Tween-80.

The structures appear in SMILES notation. Several values for one entry are separate records, joined by “and”; a condition that tells them apart may be missing. Equal values may be shown once. Toxic doses and inconclusive results are not listed.

On to `C[CH2][Sn]([CH2]C)([CH2]C(=O)OC)[CH2]C(=O)OC`, for which the T/C is, setting by setting: (dose: 1.5 mg/kg/injection, schedule: Q04DX004 (ip), vehicle: saline with Tween-80) 96 % of control; (dose: 3.0 mg/kg/injection, schedule: Q04DX004 (ip), vehicle: saline with Tween-80) 93 % of control; (dose: 6.0 mg/kg/injection, schedule: Q04DX004 (ip), vehicle: saline with Tween-80) 95 % of control; (dose: 12.0 mg/kg/injection, schedule: Q04DX004 (ip), vehicle: saline with Tween-80) 92 % of control.
As to `O=CC(S)CO` (configuration not stated), the T/C (dose: 25.0 mg/kg/injection, schedule: Q04DX004 (ip), vehicle: suspension in saline) is 108 % of control; the T/C under setting [1] is 104 % of control; the T/C under setting [2] is 118 % of control; the T/C under setting [3] is 113 % of control.
Consider `NC(=O)C1=CC2C3C=CC2(O)C(=O)OC3O1` (configuration not stated), for which the T/C (dose: 7.5 mg/kg/injection, schedule: Q04DX004 (ip), vehicle: Klucel (hydroxypropylcellulose) (HPC)) was 98 % of control; the T/C (dose: 15.0 mg/kg/injection, schedule: Q04DX004 (ip), vehicle: Klucel (hydroxypropylcellulose) (HPC)) is 95 % of control; the T/C (dose: 30.0 mg/kg/injection, schedule: Q04DX004 (ip), vehicle: Klucel (hydroxypropylcellulose) (HPC)) is 101 % of control; the T/C (dose: 60.0 mg/kg/injection, schedule: Q04DX004 (ip), vehicle: Klucel (hydroxypropylcellulose) (HPC)) was 106 % of control.
For `COc1cc([C@@H]2c3cc4c(cc3[C@@H](OC3OC5COC(C)OC5C(O)C3O)[C@H]3COC(=O)[C@H]23)OCO4)cc(OC)c1O` (some centres not stated), the T/C (dose: 4.0 mg/kg/injection, schedule: Q04DX005 (ip), vehicle: saline) was 150 % of control; the T/C (dose: 8.0 mg/kg/injection, schedule: Q04DX004 (ip), vehicle: saline) was 157 % of control; the T/C (dose: 8.0 mg/kg/injection, schedule: Q04DX005 (ip), vehicle: saline) was 154 % of control; the T/C (dose: 16.0 mg/kg/injection, schedule: Q04DX004 (ip), vehicle: saline) was 153 % of control; the T/C (dose: 16.0 mg/kg/injection, schedule: Q04DX005 (ip), vehicle: saline) is 198 % of control; the T/C (dose: 32.0 mg/kg/injection, schedule: Q04DX004 (ip), vehicle: saline) is 172 % of control and 187 % of control. Moreover, the T/C (dose: 32.0 mg/kg/injection, schedule: Q04DX005 (ip), vehicle: saline) is 319 % of control.
With `O=c1cc(-c2ccccc2)[nH]c2c1CCCC2`, the T/C under setting [4] is 91 % of control; the T/C under setting [5] is 99 % of control; the T/C (dose: 300.0 mg/kg/injection, schedule: Q04DX004 (ip), vehicle: saline with Tween-80) is 106 % of control; the T/C (dose: 600.0 mg/kg/injection, schedule: Q04DX004 (ip), vehicle: saline with Tween-80) is 98 % of control.
On to `CCc1c(C)c(SC)n(C)c(=O)c1C#N`, for which the T/C is 111 % of control under setting [6], 111 % of control under setting [7], 111 % of control under setting [8] and 96 % of control under setting [9].
Take `Cc1ccc(-n2c(CSc3ccc(Cl)cc3)nnc2SCc2nc3ccccc3[nH]2)cc1`: the T/C was 95 % of control (dose: 18.75 mg/kg/injection, schedule: Q04DX004 (ip), vehicle: saline with Tween-80); 104 % of control (dose: 37.5 mg/kg/injection, schedule: Q04DX004 (ip), vehicle: saline with Tween-80); 100 % of control under setting [4]; 95 % of control under setting [5].
As for `c1ccc2c(c1)oc1cc3c(cc12)ncc1cccn13`, the T/C (dose: 6.25 mg/kg/injection, schedule: Q04DX004 (ip), vehicle: saline with Tween-80) was 95 % of control; the T/C (dose: 12.5 mg/kg/injection, schedule: Q04DX004 (ip), vehicle: saline with Tween-80) is 90 % of control; the T/C under setting [10] is 91 % of control.
`CO[C@@]12[C@@H]3N[C@@H]3CN1C1=C(C(=O)C(NCC3CCCO3)=C(C)C1=O)[C@@H]2COC(N)=O` (some centres not stated): the T/C reads like this: (dose: 1.5 mg/kg/injection, schedule: Q04DX004 (ip), vehicle: distilled water + Tween-80) 117 % of control; (dose: 3.0 mg/kg/injection, schedule: Q04DX004 (ip), vehicle: distilled water + Tween-80) 118 % of control; (dose: 12.0 mg/kg/injection, schedule: Q04DX004 (ip), vehicle: distilled water + Tween-80) 160 % of control; (dose: 24.0 mg/kg/injection, schedule: Q04DX004 (ip), vehicle: distilled water + Tween-80) 191 % of control.
As for `CC#CCOCC(O)CCl` (configuration not stated), the T/C by setting is: (dose: 50.0 mg/kg/injection, schedule: Q04DX004 (ip), vehicle: saline) 99 % of control; under setting [1], 102 % of control; (dose: 100.0 mg/kg/injection, schedule: Q04DX004 (ip), vehicle: saline) 98 % of control; (dose: 100.0 mg/kg/injection, schedule: Q04DX004 (ip), vehicle: suspension in saline) 102 % of control; (dose: 200.0 mg/kg/injection, schedule: Q04DX004 (ip), vehicle: saline) 103 % of control; under setting [2], 102 % of control. Under setting [3], the T/C is 100 % of control.
As for `O=C1CN2Cc3c(sc4c3CCCC4)N=C2N1`, the T/C (dose: 37.5 mg/kg/injection, schedule: Q04DX004 (ip), vehicle: Klucel (hydroxypropylcellulose) (HPC)) was 103 % of control; the T/C (dose: 75.0 mg/kg/injection, schedule: Q04DX004 (ip), vehicle: Klucel (hydroxypropylcellulose) (HPC)) was 104 % of control; the T/C (dose: 150.0 mg/kg/injection, schedule: Q04DX004 (ip), vehicle: Klucel (hydroxypropylcellulose) (HPC)) was 100 % of control; the T/C (dose: 300.0 mg/kg/injection, schedule: Q04DX004 (ip), vehicle: Klucel (hydroxypropylcellulose) (HPC)) was 103 % of control; the T/C (dose: 600.0 mg/kg/injection, schedule: Q04DX004 (ip), vehicle: Klucel (hydroxypropylcellulose) (HPC)) is 100 % of control.
`O=C1c2ccccc2C(=O)c2c1cn1c2Cc2ccccc2C1`: the T/C was 90 % of control (dose: 25.0 mg/kg/injection, schedule: Q04DX004 (ip), vehicle: Klucel (hydroxypropylcellulose) (HPC)); 96 % of control and 102 % of control (dose: 25.0 mg/kg/injection, schedule: Q04DX004 (ip), vehicle: other); 91 % of control and 93 % of control (dose: 50.0 mg/kg/injection, schedule: Q04DX004 (ip), vehicle: Klucel (hydroxypropylcellulose) (HPC)); 96 % of control and 103 % of control (dose: 50.0 mg/kg/injection, schedule: Q04DX004 (ip), vehicle: other); 90 % of control (dose: 100.0 mg/kg/injection, schedule: Q04DX004 (ip), vehicle: Klucel (hydroxypropylcellulose) (HPC)); 106 % of control (dose: 100.0 mg/kg/injection, schedule: Q04DX004 (ip), vehicle: other). Besides, the T/C reads like this: (dose: 150.0 mg/kg/injection, schedule: Q04DX004 (ip), vehicle: other) 93 % of control; (dose: 200.0 mg/kg/injection, schedule: Q04DX004 (ip), vehicle: Klucel (hydroxypropylcellulose) (HPC)) 88 % of control; (dose: 200.0 mg/kg/injection, schedule: Q04DX004 (ip), vehicle: other) 97 % of control; (dose: 400.0 mg/kg/injection, schedule: Q04DX004 (ip), vehicle: Klucel (hydroxypropylcellulose) (HPC)) 89 % of control and 95 % of control.
With `O=C(CN1CCOCC1)Nc1nc(-c2ccc(Cl)cc2)cs1`, the T/C by setting is: (dose: 6.25 mg/kg/injection, schedule: Q04DX004 (ip), vehicle: DMSO) 100 % of control; (dose: 12.5 mg/kg/injection, schedule: Q04DX004 (ip), vehicle: DMSO) 93 % of control; (dose: 25.0 mg/kg/injection, schedule: Q04DX004 (ip), vehicle: DMSO) 121 % of control; under setting [10], 112 % of control; (dose: 50.0 mg/kg/injection, schedule: Q04DX004 (ip), vehicle: DMSO) 89 % of control; under setting [6], 92 % of control. For the same molecule, the T/C (dose: 100.0 mg/kg/injection, schedule: Q04DX004 (ip), vehicle: DMSO) is 87 % of control and 92 % of control; the T/C under setting [7] was 91 % of control; the T/C under setting [8] is 98 % of control; the T/C under setting [9] was 105 % of control.
As for `COc1c(O)cc2c(c1OC)-c1ccc(SC)c(=O)cc1C(NC(C)=O)CC2` (configuration not stated), the T/C was 154 % of control and 196 % of control (dose: 5.0 mg/kg/injection, schedule: Q04DX004 (ip), vehicle: Klucel (hydroxypropylcellulose) (HPC)); 235 % of control and 237 % of control (dose: 10.0 mg/kg/injection, schedule: Q04DX004 (ip), vehicle: Klucel (hydroxypropylcellulose) (HPC)).
